Consider 26 molecules from patent US20200347043A1, “MODULATORS OF THE INTEGRATED STRESS PATHWAY” (Calico Life Sciences LLC, priority 2019, published 2020).

Structures are written as SMILES.

The test system of this assay is HEK293T cells carrying the ATF4 luciferase reporter. The assay can be described thus: ATF4-Luc assay (in vitro model of VWMD). Particulars: Homo sapiens, HEK-293T, 1 μg/mL tunicamycin, 7 hours, One Glo luminescence. Type of assay: cell-based, human. Put shortly:
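Stable HEK293T line expressing firefly luciferase behind the human ATF4 5′-UTR, treated with 1 μg/mL tunicamycin plus compound for 7 hours. Luminescence read with One Glo; EC50 determined.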
As to `O=C(CO[C@H]1C[C@@H](OC(F)(F)F)C1)NC12CC(NC(=O)[C@H]3C[C@@H](O)c4cc(Cl)ccc4O3)(C1)C2` [Compound 164, (2R,4R)-6-chloro-4-hydroxy-N-[3-(2-{[cis-3-(trifluoromethoxy)cyclobutyl]oxy}acetamido)bicyclo[1.1.1]pentan-1-yl]-3,4-dihydro-2H-1-benzopyran-2-carboxamide], the EC50 (in general, the midpoint of the concentration-response curve) is under 10 nM. Under `O=C(NC12CCC(c3nnc([C@H]4C[C@@H](OC(F)(F)F)C4)o3)(CC1)OC2)C1CC(O)c2cc(Cl)ccc2O1` (some centres unmarked) [Compound 165] stands 10 to 50 nM; under `O=C1CC(C(=O)NC23CCC(c4nnc([C@H]5C[C@@H](OC(F)(F)F)C5)o4)(CC2)CC3)Oc2ccc(Cl)cc21` (stereo partly drawn) [Compound 167, 6-chloro-4-oxo-N-(4-{5-[cis-3-(trifluoromethoxy)cyclobutyl]-1,3,4-oxadiazol-2-yl}bicyclo[2.2.2]octan-1-yl)-3,4-dihydro-2H-1-benzopyran-2-carboxamide], 10 to 50 nM; under `O=C(N[C@@H]1CC[C@@H](c2nnc([C@H]3C[C@@H](OC(F)(F)F)C3)o2)OC1)[C@H]1C[C@@H](O)c2cc(Cl)ccc2O1` [Compound 169, (2R,4R)-6-chloro-4-hydroxy-N-[(3R,6S)-6-{5-[cis-3-(trifluoromethoxy)cyclobutyl]-1,3,4-oxadiazol-2-yl}oxan-3-yl]-3,4-dihydro-2H-1-benzopyran-2-carboxamide], under 10 nM. In the case of `O=C(N[C@H]1CC[C@H](C(=O)NCc2ccc(C(F)(F)F)cn2)CC1)[C@@H]1C[C@@H](O)c2cc(Cl)ccc2O1` [Compound 172, (2S,4R)-6-chloro-4-hydroxy-N-[trans-4-({[5-(trifluoromethyl)pyridin-2-yl]methyl}carbamoyl)cyclohexyl]-3,4-dihydro-2H-1-benzopyran-2-carboxamide] it was 10 to 50 nM; in that of `O=C1C[C@H](C(=O)N[C@H]2CC[C@H](C(=O)N3CC(c4ccc(Cl)cc4)C3)CC2)Oc2ccc(Cl)cc21` [Compound 173, (2R)-6-chloro-N-{trans-4-[3-(4-chlorophenyl)azetidine-1-carbonyl]cyclohexyl}-4-oxo-3,4-dihydro-2H-1-benzopyran-2-carboxamide], 10 to 50 nM. Consider `O=C(N[C@H]1CC[C@H](C(=O)N2CC(c3ccc(Cl)cc3)C2)CC1)[C@H]1C[C@@H](O)c2cc(Cl)ccc2O1` [Compound 174, (2R,4R)-6-chloro-N-{trans-4-[3-(4-chlorophenyl)azetidine-1-carbonyl]cyclohexyl}-4-hydroxy-3,4-dihydro-2H-1-benzopyran-2-carboxamide], for which the EC50 was under 10 nM.

Take `O=C1C[C@@H](C(=O)NC23CC(n4cnc(-c5ccc(F)c(F)c5)c4)(C2)C3)Oc2ccc(Cl)cc21` [Compound 175, (2S)-6-chloro-N-{3-[4-(3,4-difluorophenyl)-1H-imidazol-1-yl]bicyclo[1.1.1]pentan-1-yl}-4-oxo-3,4-dihydro-2H-1-benzopyran-2-carboxamide]: the EC50 was in the range of 50 to 250 nM. Under `O=C1C[C@H](C(=O)NC23CC(n4cnc(-c5ccc(F)c(F)c5)c4)(C2)C3)Oc2ccc(Cl)cc21` [Compound 176, (2R)-6-chloro-N-{3-[4-(3,4-difluorophenyl)-1H-imidazol-1-yl]bicyclo[1.1.1]pentan-1-yl}-4-oxo-3,4-dihydro-2H-1-benzopyran-2-carboxamide] stands 10 to 50 nM. For the molecule `O=C1C[C@@H](C(=O)N[C@@H]2CC[C@@H](c3nnc([C@H]4C[C@@H](OC(F)(F)F)C4)o3)OC2)Oc2ccc(Cl)cc21` [Compound 177, (2S)-6-chloro-4-oxo-N-[(3R,6S)-6-{5-[cis-3-(trifluoromethoxy)cyclobutyl]-1,3,4-oxadiazol-2-yl}oxan-3-yl]-3,4-dihydro-2H-1-benzopyran-2-carboxamide], the EC50 was in the range of 50 to 250 nM.

With `O=C(N[C@H]1CC[C@H](C(=O)N2CC(c3ccc(Cl)cc3)C2)CC1)[C@@H]1C[C@@H](O)c2cc(Cl)ccc2O1` [Compound 178], the EC50 fell in the range of 10 to 50 nM. In the case of `O=C1C[C@H](C(=O)NC23CC(N4CCN(c5ccc(Cl)cc5)C4=O)(C2)C3)Oc2ccc(Cl)cc21` [Compound 179, (2R)-6-chloro-N-{3-[3-(4-chlorophenyl)-2-oxoimidazolidin-1-yl]bicyclo[1.1.1]pentan-1-yl}-4-oxo-3,4-dihydro-2H-1-benzopyran-2-carboxamide] it was 50 to 250 nM. For the molecule `O=C(NC12CC(n3cnc(-c4ccc(F)c(F)c4)c3)(C1)C2)[C@@H]1C[C@H](O)c2cc(Cl)ccc2O1` [Compound 180, (2S,4S)-6-chloro-N-{3-[4-(3,4-difluorophenyl)-1H-imidazol-1-yl]bicyclo[1.1.1]pentan-1-yl}-4-hydroxy-3,4-dihydro-2H-1-benzopyran-2-carboxamide], the EC50 was 50 to 250 nM.

Take `O=C(NC12CC(n3cnc(-c4ccc(F)c(F)c4)c3)(C1)C2)[C@H]1C[C@@H](O)c2cc(Cl)ccc2O1` [Compound 181, (2R,4R)-6-chloro-N-{3-[4-(3,4-difluorophenyl)-1H-imidazol-1-yl]bicyclo[1.1.1]pentan-1-yl}-4-hydroxy-3,4-dihydro-2H-1-benzopyran-2-carboxamide]: the EC50 was under 10 nM.

`O=C(N[C@H]1CC[C@H](C(=O)N2CC(c3ccccc3)C2)CC1)[C@H]1C[C@@H](O)c2cc(Cl)ccc2O1` [Compound 182, (2R,4R)-6-chloro-4-hydroxy-N-[trans-4-(3-phenylazetidine-1-carbonyl)cyclohexyl]-3,4-dihydro-2H-1-benzopyran-2-carboxamide]: the EC50 is over 2000 nM. For the molecule `O=C(NC12CC(N3CCN(c4ccc(Cl)cc4)C3=O)(C1)C2)[C@H]1C[C@@H](O)c2cc(Cl)ccc2O1` [Compound 183, (2R,4R)-6-chloro-N-{3-[3-(4-chlorophenyl)-2-oxoimidazolidin-1-yl]bicyclo[1.1.1]pentan-1-yl}-4-hydroxy-3,4-dihydro-2H-1-benzopyran-2-carboxamide], the EC50 was 10 to 50 nM. Under `O=C1C[C@H](C(=O)N[C@H]2CC[C@H](N3CCN(C4CC(OC(F)(F)F)C4)C3=O)CC2)Oc2ccc(Cl)cc21` (stereo partly drawn) [Compound 188, (2R)-6-chloro-4-oxo-N-[(1r,4R)-4-{2-oxo-3-[3-(trifluoromethoxy)cyclobutyl]imidazolidin-1-yl}cyclohexyl]-3,4-dihydro-2H-1-benzopyran-2-carboxamide] stands over 2000 nM; under `O=C(CO[C@H]1C[C@@H](OC(F)(F)F)C1)NC12CCC(NC(=O)[C@H]3CC(=O)c4cc(F)c(F)cc4O3)(CC1)CC2` [Compound 189, (2R)-6,7-difluoro-4-oxo-N-[4-(2-{[cis-3-(trifluoromethoxy)cyclobutyl]oxy}acetamido)bicyclo[2.2.2]octan-1-yl]-3,4-dihydro-2H-1-benzopyran-2-carboxamide], 10 to 50 nM.

As to `O=C(NC12CCC(c3nnc([C@H]4C[C@@H](OC(F)(F)F)C4)o3)(CC1)OC2)[C@@H]1C[C@H](O)c2cc(Cl)ccc2O1` [Compound 190, (2S,4S)-6-chloro-4-hydroxy-N-(1-{5-[cis-3-(trifluoromethoxy)cyclobutyl]-1,3,4-oxadiazol-2-yl}-2-oxabicyclo[2.2.2]octan-4-yl)-3,4-dihydro-2H-1-benzopyran-2-carboxamide], the EC50 lay within 50 to 250 nM. Under `O=C(NC12CCC(c3nnc([C@H]4C[C@@H](OC(F)(F)F)C4)o3)(CC1)OC2)[C@H]1C[C@@H](O)c2cc(Cl)ccc2O1` [Compound 191, (2R,4R)-6-chloro-4-hydroxy-N-(1-{5-[cis-3-(trifluoromethoxy)cyclobutyl]-1,3,4-oxadiazol-2-yl}-2-oxabicyclo[2.2.2]octan-4-yl)-3,4-dihydro-2H-1-benzopyran-2-carboxamide] stands under 10 nM; under `O=C(CO[C@H]1C[C@@H](OC(F)(F)F)C1)NC12CCC(NC(=O)[C@H]3CC(=O)c4cc(Cl)ccc4O3)(CC1)CC2` [Compound 192, (2R)-6-chloro-4-oxo-N-[4-(2-{[cis-3-(trifluoromethoxy)cyclobutyl]oxy}acetamido)bicyclo[2.2.2]octan-1-yl]-3,4-dihydro-2H-1-benzopyran-2-carboxamide], 10 to 50 nM. Under `O=C(NC12CCC(C(=O)NCc3ccc(C(F)(F)F)cn3)(CC1)CC2)[C@@H]1C[C@@H](O)c2cc(Cl)ccc2O1` [Compound 193, (2S,4R)-6-chloro-4-hydroxy-N-[4-({[5-(trifluoromethyl)pyridin-2-yl]methyl}carbamoyl)bicyclo[2.2.2]octan-1-yl]-3,4-dihydro-2H-1-benzopyran-2-carboxamide] stands 50 to 250 nM.

As for `O=C(CO[C@H]1C[C@@H](OC(F)(F)F)C1)NC12CCC(NC(=O)[C@H]3C[C@@H](O)c4cc(F)c(F)cc4O3)(CC1)CC2` [Compound 194, (2R,4R)-6,7-difluoro-4-hydroxy-N-[4-(2-{[cis-3-(trifluoromethoxy)cyclobutyl]oxy}acetamido)bicyclo[2.2.2]octan-1-yl]-3,4-dihydro-2H-1-benzopyran-2-carboxamide], the concentration for a half-maximal effect (EC50) is under 10 nM. Regarding `O=C(CO[C@H]1C[C@@H](OC(F)(F)F)C1)NC12CCC(NC(=O)[C@H]3C[C@@H](O)c4cc(Cl)ccc4O3)(CC1)CC2` [Compound 195, (2R,4R)-6-chloro-4-hydroxy-N-[4-(2-{[cis-3-(trifluoromethoxy)cyclobutyl]oxy}acetamido)bicyclo[2.2.2]octan-1-yl]-3,4-dihydro-2H-1-benzopyran-2-carboxamide], the EC50 is under 10 nM.

Regarding `O=C(CO[C@H]1C[C@@H](OC(F)(F)F)C1)NC12CCC(NC(=O)[C@H]3C[C@@H](O)c4cc(Cl)ccc4O3)(C1)C2` [Compound 196, (2R,4R)-6-chloro-4-hydroxy-N-[4-(2-{[cis-3-(trifluoromethoxy)cyclobutyl]oxy}acetamido)bicyclo[2.1.1]hexan-1-yl]-3,4-dihydro-2H-1-benzopyran-2-carboxamide], the EC50 was in the range of 10 to 50 nM.

In the case of `O=C(N[C@H]1CC[C@H](N2CCN(C3CC(OC(F)(F)F)C3)C2=O)CC1)[C@H]1C[C@@H](O)c2cc(Cl)ccc2O1` (some centres unmarked) [Compound 197], the EC50 was over 2000 nM.
